Data from EP0197829A1, “5H-pyrido[3',4':4,5]pyrrolo[3,2-c]pyridine derivatives, process for their preparation and their antitunour activity” (SANOFI, priority 1985, dated 1986).
Read-outs that look alike come from different tables or passages of the source.

Experiments:
souris BDF1 saines = test: in vivo; settings: mouse, ip, 200 mg/kg
Method: Ainsi, l'administration à des souris hybrides CDF1 saines, en une injection unique par la voie intrapéritonéale, de doses croissantes des composés à tester (5 mg, 10 mg, 20 mg, 40 mg/kg) a permis de constater que, à ces doses, les produits étaient parfaitement tolérés puisque le taux de survivants était de 100 p. 100.
Dans les mêmes conditions, administrés à des souris BDF1 saines, les taux de survivants étaient de 100 p. 100 jusqu'à 100 mg/kg pour les dérivés 1, 3 et 9 et jusqu'à 200 mg/kg pour les dérivés 2 et 8.

[1] = test system: lignée tumorale leucémie L 1210; test: In vitro cytotoxicity on L 1210 leukemia cell culture; assay type: cell-based; settings: concentration inhibiting cell proliferation by 50 p. 100, after 48 h contact; read-out: ID 50 (the source's name)
Method: 1) In vitro : (PAOLETTI et al., Chem. Biol. Interaction, 1979, 25, 45-58).
L'activité cytotoxique des composés de l'invention a été évaluée par des essais in vitro. Ces essais consistent à ajouter des concentrations croissantes du composé à tester à une culture cellulaire de la lignée tumorale leucémie L 1210 en phase exponentielle de croissance. Les cellules sont incubées à 37°C dans une étuve à C02 et comptées toutes les 24 heures. Le calcul de l'ID 50 (concentration du produit exprimée en micromole 1^-1 qui inhibe la prolifération cellulaire à 50 p. 100) est effectué après 48 heures de contact. Ainsi déterminées, les ID 50 des composés de l'invention sont rassemblées dans le tableau I ci-après : […]

leucémie P 388 = assay type: in vivo, souris hybrides CDF1; settings: for Survivants: at day J 40
Source text: L'activité antitumorale a été testée in vivo sur différentes tumeurs selon le protocole général suivant : Toutes les souris mâles ou femelles sont inoculées par voie intrapéritonéale au jour Jo avec une quantité déterminée de cellules tumorales viables, variable selon la tumeur.
Elles sont ensuite réparties en différents lots. Chaque lot correspondant aux animaux traités par le produit à tester à une dose déterminée est composé de lO souris. Dans ce cas, le produit à tester est dissous dans l'eau distillée et il est administré, pendant n jours (J1-Jn) variables selon le protocole choisi, par voie intrapéritonéale à raison de 0,1 ml par lO g de poids des souris traitées, les doses du produit administré étant précisées dans les tableaux ci-dessous.
Le lot "Contrôle négatif", correspondant aux animaux qui ne sont pas traités par un produit, comprend 2 √N animaux, N étant égal au nombre total de souris traitées par un produit.
Enfin, tous lés essais sont conduits parallèlement à l'étude d'un lot appelé "Contrôle positif" de 10 animaux qui est traité par une molécule active, variable selon le protocole choisi, dans les mêmes conditions que les lots traités par le produit à tester, afin de valider l'essai.
L'activité antitumorale est évaluée en considérant l'augmentation du temps de survie des animaux traités par rapport à celui des animaux du lot "Contrôle négatif" selon la formule : • Jour médian de survie des animaux traités à une T/C = dose donnée de produit x 100 • Jour médian de survie des animaux "Contrôle négatif"
Un composé est considéré comme étant actif lorsque la valeur du rapport T/C est égale ou supérieure à 125 % selon le protocole retenu. Il est toxique lorsque cette valeur est égale ou inférieure à 85 %. Le produit est également considéré comme toxique lorsque la variation pondérale, exprimée en grammes et calculée par la formule : Poids moyen du lot mesuré au jour 5 - poids moyen du même lot au jour 1, est égale ou inférieure à -4g . a) Test de la leucémie P 388 (GERAN et al., Cancer Chemother, 1972, 2, 07-57).
Les essais sont effectués avec des souris hybrides CDF1 inoculées par voie intrapéritonéale avec […] leucémiques de la lignée P 388. Le composé à tester est administré pendant 5 jours (Jl-J5). Le contrôle positif du test est le 5-fluorouracile qui est administré dans les mêmes conditions.
[…] Un composé est considéré comme étant actif lorsque le rapport T/C est supérieur à 127 %.

diméthyl-4,5[(éthylamino-3 propyl-1)amino]-1 5-H pyrido[3',4':4,5]pyrrolo[3,2-c]pyridine [Dérivé N° 8]
taux de survivants (souris BDF1 saines): 100 p. 100 | IC50 [1]: 3.8 µM | Jour médian de survie (leucémie P 388; 5 mg/kg i.p. J1-J5): 13,4 | T/C % (leucémie P 388; 5 mg/kg i.p. J1-J5): 116% | Survivants (leucémie P 388; 5 mg/kg i.p. J1-J5): 0 | Jour médian de survie (leucémie P 388; 10 mg/kg i.p. J1-J5): 14,62 | T/C % (leucémie P 388; 10 mg/kg i.p. J1-J5): 127% | Survivants (leucémie P 388; 10 mg/kg i.p. J1-J5): 0 | Jour médian de survie (leucémie P 388; 20 mg/kg i.p. J1-J5): 16,75 | T/C % (leucémie P 388; 20 mg/kg i.p. J1-J5): 145% | Survivants (leucémie P 388; 20 mg/kg i.p. J1-J5): 0 | Jour médian de survie (leucémie P 388; 40 mg/kg i.p. J1-J5): 16,0 | T/C % (leucémie P 388; 40 mg/kg i.p. J1-J5): 138% | Survivants (leucémie P 388; 40 mg/kg i.p. J1-J5): 0 | Jour médian de survie (leucémie P 388; 80 mg/kg i.p. J1-J5): 17,25 | T/C % (leucémie P 388; 80 mg/kg i.p. J1-J5): 149% | Survivants (leucémie P 388; 80 mg/kg i.p. J1-J5): 0
